Assay results published in ChEMBL document CHEMBL3856264, “Discovery of novel 2',4'-dimethyl-[4,5'-bithiazol]-2-yl amino derivatives as orally bioavailable TRPV4 antagonists for the treatment of pain: Part 1” (Bioorg Med Chem Lett, 2016).
Values after ≈ are worked out from the molar mass of the structure shown.

Experiments:
[1] = target: T1, Transient receptor potential cation channel subfamily V member 4 (Homo sapiens, UniProt Q9HBA0); test: Antagonist activity at human recombinant TRPV4 expressed in CHO-K1 cells assessed as blockade of 1000 nM 4alphaPDD-induced calcium mobilization by FLIPR assay; type: cell-based
[2] = Stability in human liver microsomes assessed as compound remaining after 30 mins in presence or absence of NADPH generating system at 37 degC; type: ADME, microsome; details: read-out: Stability
[3] = Aqueous solubility of compound in sodium phosphate buffer containing 1% DMSO at pH 6.8; type: physicochemical
Cytochrome P450 2C19 = Cytochrome P450 2C19 (Homo sapiens, UniProt P33261); test: Inhibition of CYP2C19 (unknown origin); type: ADME
[4] = Oral bioavailability in guinea pig at 1 mg/kg; type: ADME, organism-based, Cavia porcellus; details: in vivo
[5] = Half life in guinea pig at 0.5 mg/kg, iv; type: ADME, organism-based, Cavia porcellus; details: in vivo
CHO-K1 = test: Selectivity ratio of IC50 for guinea pig recombinant TRPV4 expressed in CHO-K1 cells to IC50 for human recombinant TRPV4 expressed in CHO-K1 cells; type: cell-based
[6] = Volume of distribution at steady state in guinea pig at 0.5 mg/kg, iv; type: ADME, organism-based, Cavia porcellus; details: in vivo, read-out: Vdss
[7] = Plasma concentration in FCA-induced guinea pig mechanical hyperalgesia model at 30 mg/kg, po after 1 hr; type: ADME, organism-based, Cavia porcellus
[8] = target: Voltage-gated inwardly rectifying potassium channel KCNH2 (Homo sapiens, UniProt Q12809); test: Inhibition of human ERG
[9] = Protein binding in guinea pig plasma; type: ADME, cell-free, Cavia porcellus; details: read-out: PPB (converted)
Cytochrome P450 2C9 = Cytochrome P450 2C9 (Homo sapiens, UniProt P11712); test: Inhibition of CYP2C9 (unknown origin); type: ADME
Cytochrome P450 3A4 = Cytochrome P450 3A4 (Homo sapiens, UniProt P08684); test: Inhibition of CYP3A4 (unknown origin); type: ADME
[10] = Plasma concentration in FCA-induced guinea pig mechanical hyperalgesia model at 10 mg/kg, po after 1 hr; type: ADME, organism-based, Cavia porcellus
[11] = target: Transient receptor potential cation channel subfamily V member 1 (Homo sapiens, UniProt Q8NER1); test: Antagonist activity at human TRPV1 expressed in CHO cells assessed as blockade of 100 nM capsaicin-induced calcium mobilization by FLIPR assay; type: cell-based
[12] = Total clearance in guinea pig at 0.5 mg/kg, iv; type: ADME, organism-based, Cavia porcellus; details: in vivo
[13] = Cmax in guinea pig at 1 mg/kg, po; type: ADME, organism-based, Cavia porcellus; design: dose 1 mg/kg, route oral; details: in vivo
[14] = Stability in guinea pig liver microsomes assessed as compound remaining after 30 mins in presence or absence of NADPH generating system at 37 degC; type: ADME, Cavia porcellus, microsome; details: read-out: Stability
[15] = target: T1, Transient receptor potential cation channel subfamily V member 4; test: Antagonist activity at human recombinant TRPV4 expressed in CHO-K1 cells assessed as blockade of hypotonic solution-induced calcium mobilization by FLIPR assay; type: cell-based
Cytochrome P450 2D6 = Cytochrome P450 2D6 (Homo sapiens, UniProt P10635); test: Inhibition of CYP2D6 (unknown origin); type: ADME
Cavia porcellus [16] = test: Analgesic activity in FCA-induced guinea pig mechanical hyperalgesia model assessed as reversal of mechanical hyperalgesia at 30 mg/kg, po after 1 hr (reference value: 1.6 +/- 3.4%); type: functional
[17] = Antagonist activity at guinea pig recombinant TRPV4 expressed in CHO-K1 cells assessed as blockade of 250 nM 4alphaPDD-induced calcium mobilization by FLIPR assay; type: cell-based; details: Cavia porcellus
[18] = Tmax in guinea pig at 1 mg/kg, po; type: ADME, organism-based, Cavia porcellus; details: in vivo
Cytochrome P450 1A2 = target: T2, Cytochrome P450 1A2 (Homo sapiens, UniProt P05177); test: Inhibition of CYP1A2 (unknown origin); type: ADME
T2 sequence (P05177 whole entry): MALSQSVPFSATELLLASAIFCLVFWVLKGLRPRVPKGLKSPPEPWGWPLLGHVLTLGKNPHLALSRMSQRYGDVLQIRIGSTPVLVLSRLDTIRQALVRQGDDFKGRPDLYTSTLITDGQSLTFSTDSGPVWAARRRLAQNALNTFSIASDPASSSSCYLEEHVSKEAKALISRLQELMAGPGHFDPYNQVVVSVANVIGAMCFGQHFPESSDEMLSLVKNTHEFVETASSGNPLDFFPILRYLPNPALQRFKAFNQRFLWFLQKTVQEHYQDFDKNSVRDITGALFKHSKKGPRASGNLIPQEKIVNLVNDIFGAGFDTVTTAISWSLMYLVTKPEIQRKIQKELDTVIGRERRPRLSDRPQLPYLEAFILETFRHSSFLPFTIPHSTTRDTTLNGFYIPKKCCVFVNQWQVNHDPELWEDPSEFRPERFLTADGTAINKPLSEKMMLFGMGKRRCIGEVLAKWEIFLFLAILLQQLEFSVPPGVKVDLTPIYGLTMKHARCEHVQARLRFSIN

[19] = AUC in guinea pig at 1 mg/kg, po; type: ADME, organism-based, Cavia porcellus; details: in vivo
Cavia porcellus [20] = test: Analgesic activity in FCA-induced guinea pig mechanical hyperalgesia model assessed as reversal of mechanical hyperalgesia at 10 mg/kg, po after 1 hr (reference value: 1.6 +/- 3.4%); type: functional
Salmonella typhimurium = test: Genotoxicity in Salmonella typhimurium by Ames test; type: toxicity, organism-based; details: salmonella enterica subsp. enterica serovar typhimurium

T1 sequence (Q9HBA0 whole entry): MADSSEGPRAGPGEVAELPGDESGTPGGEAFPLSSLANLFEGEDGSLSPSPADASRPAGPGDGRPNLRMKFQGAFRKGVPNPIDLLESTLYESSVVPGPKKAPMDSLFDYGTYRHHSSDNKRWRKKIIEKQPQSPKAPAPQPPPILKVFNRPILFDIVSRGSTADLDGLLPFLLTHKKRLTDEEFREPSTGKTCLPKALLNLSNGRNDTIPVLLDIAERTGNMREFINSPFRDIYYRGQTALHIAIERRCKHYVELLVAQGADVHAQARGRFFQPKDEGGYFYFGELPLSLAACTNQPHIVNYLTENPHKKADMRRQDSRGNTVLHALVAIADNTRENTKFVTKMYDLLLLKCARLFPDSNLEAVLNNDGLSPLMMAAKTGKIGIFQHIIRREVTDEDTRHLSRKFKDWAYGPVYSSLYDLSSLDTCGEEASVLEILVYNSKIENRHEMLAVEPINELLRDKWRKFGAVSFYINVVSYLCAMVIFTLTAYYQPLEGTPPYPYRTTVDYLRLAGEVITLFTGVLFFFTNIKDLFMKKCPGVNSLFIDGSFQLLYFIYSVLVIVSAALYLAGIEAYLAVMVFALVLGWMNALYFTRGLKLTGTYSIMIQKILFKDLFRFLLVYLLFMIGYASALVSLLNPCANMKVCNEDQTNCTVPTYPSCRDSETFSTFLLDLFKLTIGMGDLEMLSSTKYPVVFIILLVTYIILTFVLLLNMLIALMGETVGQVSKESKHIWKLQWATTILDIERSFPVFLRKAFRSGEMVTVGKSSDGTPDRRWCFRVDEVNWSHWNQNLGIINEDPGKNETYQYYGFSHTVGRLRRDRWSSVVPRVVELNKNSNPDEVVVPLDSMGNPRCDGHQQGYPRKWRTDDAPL
Chain of Cytochrome P450 3A4 (P08684 whole entry): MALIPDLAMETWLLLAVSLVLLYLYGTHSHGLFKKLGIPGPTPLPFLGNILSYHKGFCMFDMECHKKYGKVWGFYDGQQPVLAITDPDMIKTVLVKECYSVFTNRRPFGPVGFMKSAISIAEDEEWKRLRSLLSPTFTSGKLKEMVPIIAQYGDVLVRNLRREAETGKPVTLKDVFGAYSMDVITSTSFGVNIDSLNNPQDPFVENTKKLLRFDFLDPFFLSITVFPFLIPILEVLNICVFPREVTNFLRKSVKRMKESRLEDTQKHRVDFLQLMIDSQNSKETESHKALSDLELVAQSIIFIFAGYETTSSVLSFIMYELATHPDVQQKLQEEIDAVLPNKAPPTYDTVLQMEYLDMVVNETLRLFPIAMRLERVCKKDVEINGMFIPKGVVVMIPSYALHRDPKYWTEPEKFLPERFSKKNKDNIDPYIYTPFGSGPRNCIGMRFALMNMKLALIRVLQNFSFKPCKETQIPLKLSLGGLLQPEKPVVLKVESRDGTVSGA
Chain of Voltage-gated inwardly rectifying potassium channel KCNH2 (Q12809 whole entry): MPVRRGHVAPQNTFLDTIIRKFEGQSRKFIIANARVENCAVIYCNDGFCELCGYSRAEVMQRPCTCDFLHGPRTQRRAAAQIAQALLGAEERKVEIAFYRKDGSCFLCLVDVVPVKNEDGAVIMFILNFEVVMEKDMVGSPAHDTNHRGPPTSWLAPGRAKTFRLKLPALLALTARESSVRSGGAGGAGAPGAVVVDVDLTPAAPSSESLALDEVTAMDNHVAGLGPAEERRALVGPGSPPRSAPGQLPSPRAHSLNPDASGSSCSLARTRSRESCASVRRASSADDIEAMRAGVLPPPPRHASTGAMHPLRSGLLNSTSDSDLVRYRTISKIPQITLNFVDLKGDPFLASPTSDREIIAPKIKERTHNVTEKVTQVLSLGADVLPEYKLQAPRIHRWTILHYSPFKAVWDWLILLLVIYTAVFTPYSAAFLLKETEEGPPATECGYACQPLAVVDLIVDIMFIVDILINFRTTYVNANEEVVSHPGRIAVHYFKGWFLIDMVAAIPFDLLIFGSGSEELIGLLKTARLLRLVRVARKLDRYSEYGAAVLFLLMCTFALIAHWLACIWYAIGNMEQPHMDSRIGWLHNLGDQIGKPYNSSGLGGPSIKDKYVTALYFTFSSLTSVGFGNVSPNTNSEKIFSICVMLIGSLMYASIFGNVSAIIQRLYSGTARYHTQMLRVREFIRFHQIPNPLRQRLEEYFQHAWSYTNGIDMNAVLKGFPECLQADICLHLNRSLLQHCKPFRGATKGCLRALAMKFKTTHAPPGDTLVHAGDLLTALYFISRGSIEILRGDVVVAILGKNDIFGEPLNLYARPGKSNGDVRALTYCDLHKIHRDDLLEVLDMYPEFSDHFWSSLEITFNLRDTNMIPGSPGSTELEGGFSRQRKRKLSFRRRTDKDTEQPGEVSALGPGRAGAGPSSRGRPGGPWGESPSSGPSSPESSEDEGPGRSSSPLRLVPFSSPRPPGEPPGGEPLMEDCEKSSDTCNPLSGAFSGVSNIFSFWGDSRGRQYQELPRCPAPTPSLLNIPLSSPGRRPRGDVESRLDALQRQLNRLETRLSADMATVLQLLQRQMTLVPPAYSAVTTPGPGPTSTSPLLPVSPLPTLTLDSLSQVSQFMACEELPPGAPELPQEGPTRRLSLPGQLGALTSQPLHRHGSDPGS
Chain of Cytochrome P450 2C9 (P11712 whole entry): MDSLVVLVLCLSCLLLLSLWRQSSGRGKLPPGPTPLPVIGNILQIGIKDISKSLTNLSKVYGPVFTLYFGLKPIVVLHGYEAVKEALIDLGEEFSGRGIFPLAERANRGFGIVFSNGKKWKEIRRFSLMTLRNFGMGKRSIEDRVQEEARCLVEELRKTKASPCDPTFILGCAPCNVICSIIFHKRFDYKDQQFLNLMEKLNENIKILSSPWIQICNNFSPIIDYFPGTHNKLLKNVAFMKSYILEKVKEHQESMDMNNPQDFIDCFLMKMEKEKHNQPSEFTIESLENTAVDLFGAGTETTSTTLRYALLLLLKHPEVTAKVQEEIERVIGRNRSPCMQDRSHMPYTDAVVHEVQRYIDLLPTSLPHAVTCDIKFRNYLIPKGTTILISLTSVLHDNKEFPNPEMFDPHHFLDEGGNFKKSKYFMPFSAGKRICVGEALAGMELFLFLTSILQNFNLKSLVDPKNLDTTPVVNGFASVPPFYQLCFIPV
Chain of Cytochrome P450 2D6 (P10635 whole entry): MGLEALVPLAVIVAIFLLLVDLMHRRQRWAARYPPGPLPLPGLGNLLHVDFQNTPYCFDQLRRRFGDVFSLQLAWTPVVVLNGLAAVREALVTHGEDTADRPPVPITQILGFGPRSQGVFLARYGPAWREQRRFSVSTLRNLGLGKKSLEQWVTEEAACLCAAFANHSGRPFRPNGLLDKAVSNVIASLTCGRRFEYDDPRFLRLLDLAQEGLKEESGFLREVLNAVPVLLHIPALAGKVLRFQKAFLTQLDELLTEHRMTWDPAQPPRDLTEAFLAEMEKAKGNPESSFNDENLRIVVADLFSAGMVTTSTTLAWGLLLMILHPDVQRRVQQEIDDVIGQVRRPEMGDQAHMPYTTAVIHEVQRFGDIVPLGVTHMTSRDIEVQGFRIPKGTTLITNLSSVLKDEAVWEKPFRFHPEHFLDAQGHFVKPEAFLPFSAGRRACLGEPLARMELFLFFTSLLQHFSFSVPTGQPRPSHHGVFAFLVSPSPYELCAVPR
Chain of Transient receptor potential cation channel subfamily V member 1 (Q8NER1 whole entry): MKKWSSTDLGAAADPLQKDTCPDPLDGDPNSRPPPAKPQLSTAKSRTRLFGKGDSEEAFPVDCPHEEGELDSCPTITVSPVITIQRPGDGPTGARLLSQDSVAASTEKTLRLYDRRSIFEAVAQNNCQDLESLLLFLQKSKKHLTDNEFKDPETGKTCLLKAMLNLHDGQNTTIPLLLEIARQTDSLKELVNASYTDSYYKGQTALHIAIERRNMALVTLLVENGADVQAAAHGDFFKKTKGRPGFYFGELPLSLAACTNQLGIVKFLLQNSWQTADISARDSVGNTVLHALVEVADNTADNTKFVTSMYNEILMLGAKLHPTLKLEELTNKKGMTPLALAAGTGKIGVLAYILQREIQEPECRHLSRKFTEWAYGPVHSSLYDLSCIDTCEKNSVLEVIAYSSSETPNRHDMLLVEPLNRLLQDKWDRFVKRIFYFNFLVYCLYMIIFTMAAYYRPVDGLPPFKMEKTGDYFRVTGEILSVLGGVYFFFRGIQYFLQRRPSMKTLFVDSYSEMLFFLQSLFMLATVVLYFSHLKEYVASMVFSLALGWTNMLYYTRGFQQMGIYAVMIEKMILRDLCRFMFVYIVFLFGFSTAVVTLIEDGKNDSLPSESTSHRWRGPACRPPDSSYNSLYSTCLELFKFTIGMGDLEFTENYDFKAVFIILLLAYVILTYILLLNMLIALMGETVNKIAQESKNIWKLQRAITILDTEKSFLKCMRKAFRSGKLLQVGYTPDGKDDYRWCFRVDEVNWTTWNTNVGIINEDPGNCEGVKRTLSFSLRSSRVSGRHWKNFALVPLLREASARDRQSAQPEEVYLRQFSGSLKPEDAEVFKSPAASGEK
Chain of Cytochrome P450 2C19 (P33261 whole entry): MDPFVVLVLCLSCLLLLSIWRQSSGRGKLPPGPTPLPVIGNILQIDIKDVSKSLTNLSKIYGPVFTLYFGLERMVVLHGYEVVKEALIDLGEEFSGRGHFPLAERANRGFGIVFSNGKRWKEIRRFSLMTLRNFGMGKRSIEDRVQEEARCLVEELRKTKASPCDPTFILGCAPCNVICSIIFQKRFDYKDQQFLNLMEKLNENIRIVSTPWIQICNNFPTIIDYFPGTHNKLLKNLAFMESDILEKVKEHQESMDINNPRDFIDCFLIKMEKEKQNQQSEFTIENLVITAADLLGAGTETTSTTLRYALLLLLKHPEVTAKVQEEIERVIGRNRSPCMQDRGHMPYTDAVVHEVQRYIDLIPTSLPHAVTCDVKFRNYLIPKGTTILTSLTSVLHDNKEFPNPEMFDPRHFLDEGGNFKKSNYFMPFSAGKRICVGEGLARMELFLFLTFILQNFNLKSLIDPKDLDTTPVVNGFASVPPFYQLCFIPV

## Cc1nc(C)c(-c2csc(Nc3ccc(S(=O)(=O)Nc4ccc(Cl)cc4)cn3)n2)s1
[1]
  IC50: 290 nM
[2]
  remaining at 0.5 h: 83.4%
[3]
  solubility: 4.5 µM (≈ 2.15 µg/mL)

## CCOC(=O)c1ccc(Nc2nc(-c3sc(C)nc3C)cs2)nc1
[1]
  IC50: 11 nM
[2]
  remaining at 0.5 h: 13.5%
[3]
  solubility: 3.4 µM (≈ 1.23 µg/mL)

## Cc1nc(C)c(-c2csc(Nc3ccc(C(=O)N4CCC(=O)CC4)cn3)n2)s1
[1]
  IC50: 620 nM
[2]
  remaining at 0.5 h: 1.4%
[3]
  solubility: > 50 µM

## Cc1nc(C)c(-c2csc(Nc3ccc(Br)cc3)n2)s1
[1]
  IC50: 34 nM
[2]
  remaining at 0.5 h: 86.4%

## COc1ccnc(Nc2nc(-c3sc(C)nc3C)cs2)c1
[1]
  IC50: 410 nM
[2]
  remaining at 0.5 h: 0.7%

## Cc1nc(C)c(-c2csc(Nc3cccc(C#N)n3)n2)s1
[1]
  IC50: 100 nM
[2]
  remaining at 0.5 h: 66.4%

## Cc1nc(C)c(-c2csc(Nc3ccc(C(=O)Nc4ccc(Cl)cc4)cn3)n2)s1
[1]
  IC50: 9.5 nM
[2]
  remaining at 0.5 h: 54.6%
[3]
  solubility: 10.6 µM (≈ 4.68 µg/mL)

## Cc1nc(C)c(-c2csc(Nc3ccc(C(=O)N4C5CCC4CC(=O)C5)cn3)n2)s1
[2]
  remaining at 0.5 h: 81%
[3]
  solubility: 46.4 µM (≈ 20.4 µg/mL)

## Cc1nc(C)c(-c2csc(Nc3ccc(C(=O)O)cn3)n2)s1
[1]
  IC50: > 10000 nM
[2]
  remaining at 0.5 h: 100%
[3]
  solubility: > 50 µM

## COc1cccnc1Nc1nc(-c2sc(C)nc2C)cs1
[1]
  IC50: > 10000 nM
[2]
  remaining at 0.5 h: 30.9%

## Cc1nc(C)c(-c2csc(Nc3ccc(NS(=O)(=O)c4ccc(Cl)cc4)cn3)n2)s1
[1]
  IC50: 240 nM
[2]
  remaining at 0.5 h: 81.5%
[3]
  solubility: 1.2 µM (≈ 0.574 µg/mL)

## Cc1nc(C)c(-c2csc(Nc3ccc(C#N)cn3)n2)s1
[1]
  IC50: 22 nM
[2]
  remaining at 0.5 h: 65%
[3]
  solubility: 1.7 µM (≈ 0.533 µg/mL)

## Cc1nc(C)c(-c2csc(Nc3cc(C#N)ccn3)n2)s1
[1]
  IC50: 240 nM
[2]
  remaining at 0.5 h: 2.8%

## COc1cccc(Nc2nc(-c3sc(C)nc3C)cs2)n1
[1]
  IC50: 23 nM
[2]
  remaining at 0.5 h: 40%

## Cc1nc(C)c(-c2csc(Nc3ccc(C(=O)NC4CCCCC4)cn3)n2)s1
[1]
  IC50: 29 nM
[2]
  remaining at 0.5 h: 55%
[3]
  solubility: 1.8 µM (≈ 0.744 µg/mL)

## Cc1nc(C)c(-c2csc(Nc3ccc(C(=O)N4CCCCC4)cn3)n2)s1
[1]
  IC50: 37 nM
[2]
  remaining at 0.5 h: 74.5%
[3]
  solubility: 0.8 µM (≈ 0.32 µg/mL)

## Cc1nc(C)c(-c2csc(Nc3ccc(NC(=O)c4ccc(Cl)cc4)cn3)n2)s1
[1]
  IC50: > 10000 nM
[2]
  remaining at 0.5 h: 65.2%
[3]
  solubility: 3.9 µM (≈ 1.72 µg/mL)

## Cc1nc(C)c(-c2csc(Nc3ccccn3)n2)s1
[1]
  IC50: 10 nM
[2]
  remaining at 0.5 h: 1.1%

## Cc1nc(C)c(-c2csc(Nc3ncccc3C#N)n2)s1
[1]
  IC50: 4300 nM
[2]
  remaining at 0.5 h: 1.3%

## CCNC(=O)c1ccc(Nc2nc(-c3sc(C)nc3C)cs2)nc1
[1]
  IC50: > 10000 nM
[2]
  remaining at 0.5 h: 81.4%
[3]
  solubility: 2.8 µM (≈ 1.01 µg/mL)

## Cc1nc(C)c(-c2csc(Nc3ccncc3)n2)s1
[1]
  IC50: 3300 nM
[2]
  remaining at 0.5 h: 17.8%

## COc1ccc(Nc2nc(-c3sc(C)nc3C)cs2)nc1
[1]
  IC50: 35 nM
[2]
  remaining at 0.5 h: 10%

## Cc1nc(C)c(-c2csc(Nc3ccc(C(=O)N4C(C)CC(=O)CC4C)cn3)n2)s1 (centres undefined)
[1]
  IC50: 46 nM
[2]
  remaining at 0.5 h: 52.8%
[3]
  solubility: 45 µM (≈ 19.9 µg/mL)

## Cc1nc(C)c(-c2csc(Nc3ccc(C(=O)NCc4ccc(Cl)cc4)cn3)n2)s1
[1]
  IC50: 200 nM
[2]
  remaining at 0.5 h: 50.8%
[3]
  solubility: 2.5 µM (≈ 1.14 µg/mL)

## Cc1nc(C)c(-c2csc(Nc3ccc(C(=O)N4C(C)CCCC4C)cn3)n2)s1 (centres undefined)
[1]
  IC50: 6.3 nM
[2]
  remaining at 0.5 h: 2.1%
[3]
  solubility: < 0.1 µM

## Cc1nc(C)c(-c2csc(Nc3ccc(C(=O)N(C)c4ccc(Cl)cc4)cn3)n2)s1
[1]
  IC50: 50 nM
[2]
  remaining at 0.5 h: 53.6%
[3]
  solubility: 1.4 µM (≈ 0.638 µg/mL)

## Cc1nc(C)c(-c2csc(Nc3ccc(C(=O)N4C5COCC4CC(=O)C5)cn3)n2)s1
Cytochrome P450 2C19
  INH: > 20 µM
[4]
  bioavailability: 38.6%
[5]
  half-life: 66 min
CHO-K1
  Ratio IC50: 1.4
[6]
  Vd: 2.5 L/kg
[7]
  concentration at 1 h: 1940 ng/mL
[8]
  IC50: > 30000 nM
[9]
  fraction unbound: 0.1
Cytochrome P450 2C9
  INH: > 20 µM
Cytochrome P450 3A4
  INH: > 20 µM
[10]
  concentration at 1 h: 515 ng/mL
[2]
  remaining at 0.5 h: 100%
[11]
  IC50: > 10000 nM
[12]
  clearance: 37.1 mL/min/kg
[13]
  Cmax: 59.2 ng/mL
[14]
  remaining at 0.5 h: 84%
[15]
  IC50: 3.1 nM
Cytochrome P450 2D6
  INH: > 20 µM
Cavia porcellus [16]
  Activity: 45.6%
[3]
  solubility: > 50 µM
[17]
  IC50: 27 nM
[18]
  Tmax: 30 min
Cytochrome P450 1A2
  INH: > 20 µM
[19]
  AUC: 200 ng·h/mL
Cavia porcellus [20]
  Activity: 30.8%
Salmonella typhimurium
  Activity: Non-Toxic

## Cc1nc(C)c(-c2csc(Nc3ccccc3)n2)s1
[1]
  IC50: 31 nM
[2]
  remaining at 0.5 h: 22.8%

## Cc1nc(C)c(-c2csc(Nc3ncccn3)n2)s1
[1]
  IC50: 10000 nM
[2]
  remaining at 0.5 h: 0.3%

## Cc1nc(C)c(-c2csc(Nc3cccnc3)n2)s1
[1]
  IC50: 490 nM
[2]
  remaining at 0.5 h: 39.5%
